# Where two headings read alike, the source gives them in different places.
# What was measured:
# TYK2 JH2 = target: T1, TYK2 JH2 (Homo sapiens, UniProt P29597); assay: TYK2 JH2 binding assay (KINOMEscan KdELECT competitive binding); conditions: TYK2 JH2 domain
# T1 construct: purchased DiscoverX (KINOMEscan KdELECT service); host or cells: E. coli BL21-derived (T7 phage display) or HEK-293
# In short: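 Kd values come from qPCR measurement of kinase retained on an immobilized-ligand resin after 1 h room-temperature competition with compound in an 11-point, 3-fold series.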
# [1] = tested on: JAK1/TYK2 pSTAT5 (Tyr694/699) in THP-1 cell line; assay: IFNa-stimulated JAK1/TYK2 pSTAT5 (Tyr694/699) inhibition cellular assay, AlphaLISA; assay type: cell-based; conditions: Homo sapiens, THP-1 cells, AlphaLISA (Assay B)
# In short: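 The readout is AlphaLISA signal at 615 nm for phospho-STAT5 in THP-1 lysates after IFNa stimulation (added at 100 ng/mL, 30 min, 37 °C). Cells had compound for 1 h beforehand across eight 6-fold concentrations up to 10000 nM final. IC50s are 4PL fits with bottom and Hill slope constrained.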
# [2] = KINOMEscan KdELECT (Assay A), read-out: Biochemical TYK2_DiscoverX_JH2_BND_Kd
# [3] = IFNa-stimulated, read-out: Cellular_THP1_IFNa-pSTATS_TYK2
# [4] = DiscoverX KINOMEscan KdELECT (Assay A), read-out: Biochemical TYK2_DiscoverX_JH2_BND_Kd
# [5] = IFNa-stimulated pSTAT5 (Tyr694/699), read-out: Cellular_THP1_IFNa-pSTATS_TYK2
# [6] = KINOMEscan KdELECT (Assay A), read-out: Biochemical TYK2_JH2_Kd
# [7] = IFNa-stimulated, read-out: Cellular THP1_IFNa-pSTATS_IC50
# T1 sequence (P29597 589-875 limits assumed): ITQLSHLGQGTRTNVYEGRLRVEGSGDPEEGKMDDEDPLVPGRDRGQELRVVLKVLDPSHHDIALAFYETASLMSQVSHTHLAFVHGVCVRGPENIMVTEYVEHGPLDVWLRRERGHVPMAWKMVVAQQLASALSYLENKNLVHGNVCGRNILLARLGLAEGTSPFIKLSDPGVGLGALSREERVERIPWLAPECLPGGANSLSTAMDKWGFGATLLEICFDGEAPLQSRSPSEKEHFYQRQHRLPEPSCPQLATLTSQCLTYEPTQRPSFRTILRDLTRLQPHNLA
Kd (TYK2 JH2; [2]),"IC50 [1, 3]",Kd (TYK2 JH2; [4]),SMILES,further results
≤ 100 nM,≤ 500 nM,–,"CNc1ncc(C#Cc2cc3c(cc2F)nnn3C)c2cc(NC(=O)C3CC3)ncc12 [Example 685, N-(5-((5-fluoro-1-methyl-1H-benzo[d][1,2,3]triazol-6-yl)ethynyl)-8-(methylamino)-2,7-naphthyridin-3-yl)cyclopropanecarboxamide]",–
–,≤ 500 nM,≤ 100 nM,"CNc1ncc(-c2nc3cc(OC4COC4)ccc3o2)c2cc(NC(=O)C3CC3)ncc12 [Example 228, N-(8-(methylamino)-5-(5-(oxetan-3-yloxy)benzo[d]oxazol-2-yl)-2,7-naphthyridin-3-yl)cyclopropanecarboxamide]",–
–,≤ 500 nM,≤ 100 nM,"CNc1ncc(-c2nc3ccc(N4CCO[C@@H](C)C4)cn3n2)c2cc(Nc3ccccn3)ncc12 [Example 543, (S)—N^1-methyl-4-(6-(2-methylmorpholino)-[1,2,4]triazolo[1,5-a]pyridin-2-yl)-N^6-(pyridin-2-yl)-2,7-naphthyridine-1,6-diamine]",–
≤ 100 nM,–,–,"CNc1ncc(-c2nc3cc(N4CCOCC4)ccc3o2)c2cc(NC(=O)[C@@H]3C[C@@H]3C(F)(F)F)ncc12 (single isomer, unassigned) [Example 1066]","IC50 [1, 5]: ≤ 500 nM"
≤ 100 nM,≤ 500 nM,–,"CNc1ncc(-c2nc3cc(N4CCO[C@@H](C(C)(C)O)C4)ccc3o2)c2cc(NC(=O)C3CC3)ncc12 (single isomer, unassigned) [Example 925]",–
–,–,–,"CNc1ncc(-c2ccccc2SC)c2cc(NC(=O)C3CC3)ncc12 [Example 47, N-(8-(methylamino)-5-(2-(methylthio)phenyl)-2,7-naphthyridin-3-yl)cyclopropanecarboxamide]","Kd (TYK2 JH2; [6]): 100 to 1000 nM; IC50 [1, 7]: > 500 nM"
–,–,–,"CNc1ncc(-c2cnn(CCOC)c2)c2cc(NC(=O)C3CC3)ncc12 [Example 115, N-(5-(1-(2-methoxyethyl)-1H-pyrazol-4-yl)-8-(methylamino)-2,7-naphthyridin-3-yl)cyclopropanecarboxamide]","Kd (TYK2 JH2; [6]): ≤ 100 nM; IC50 [1, 7]: > 500 nM"
≤ 100 nM,≤ 500 nM,–,"[2H]C([2H])([2H])n1nccc1C#Cc1cnc(NC)c2cnc(NC(=O)C3CC3)cc12 [Example 901, N-(5-((1-(methyl-d3)-1H-pyrazol-5-yl)ethynyl)-8-(methylamino)-2,7-naphthyridin-3-yl)cyclopropanecarboxamide]",–
–,–,–,"CNc1ncc(-c2ccccc2COC)c2cc(NC(=O)C3CC3)ncc12 [Example 119, N-(5-(2-(methoxymethyl)phenyl)-8-(methylamino)-2,7-naphthyridin-3-yl)cyclopropanecarboxamide]","Kd (TYK2 JH2; [6]): ≤ 100 nM; IC50 [1, 7]: > 500 nM"
–,–,–,"CNc1ncc(-c2nc3ccccn3n2)c2cc(NC(=O)C3CC3)ncc12 [Example 155, N-(5-([1,2,4]triazolo[1,5-a]pyridin-2-yl)-8-(methylamino)-2,7-naphthyridin-3-yl)cyclopropanecarboxamide]","Kd (TYK2 JH2; [6]): ≤ 100 nM; IC50 [1, 7]: ≤ 500 nM"
–,≤ 500 nM,≤ 100 nM,"CNc1ncc(-c2nc3ccc(N4C[C@@H](C)O[C@@H](C)C4)cn3n2)c2cc(NC(=O)CC(F)(F)F)ncc12 [Example 556, N-(5-(6-((2R,6S)-2,6-dimethylmorpholino)-[1,2,4]triazolo[1,5-a]pyridin-2-yl)-8-(methylamino)-2,7-naphthyridin-3-yl)-3,3,3-trifluoropropanamide]",–
≤ 100 nM,> 500 nM,–,"CNc1ncc(-c2nc(Cc3ncnn3C)co2)c2cc(NC(=O)C3CC3)ncc12 [Example 828, N-(5-(4-((1-methyl-1H-1,2,4-triazol-5-yl)methyl)oxazol-2-yl)-8-(methylamino)-2,7-naphthyridin-3-yl)cyclopropanecarboxamide]",–
–,≤ 500 nM,≤ 100 nM,"CNc1ncc(-c2nc3cc(C4CCN([C@@]5(C)COC[C@H]5O)CC4)ccc3o2)c2cc(NC(=O)C3CC3)ncc12 (single isomer, unassigned) [Example 261]",–
–,≤ 500 nM,≤ 100 nM,"CNc1ncc(-c2nc3cc(N4CCC[C@@H](OC)C4)ccc3o2)c2cc(NC(=O)C3CC3)ncc12 [Example 290, (R)-N-(5-(5-(3-methoxypiperidin-1-yl)benzo[d]oxazol-2-yl)-8-(methylamino)-2,7-naphthyridin-3-yl)cyclopropanecarboxamide]",–
–,≤ 500 nM,≤ 100 nM,"CNc1ncc(-c2nc3cccc(COC)c3o2)c2cc(NC(=O)C3CC3)ncc12 [Example 267, N-(5-(7-(methoxymethyl)benzo[d]oxazol-2-yl)-8-(methylamino)-2,7-naphthyridin-3-yl)cyclopropanecarboxamide]",–
–,≤ 500 nM,≤ 100 nM,"CNc1ncc(-c2nc3cc(OC)ccc3o2)c2cc(NC(=O)[C@@H]3C[C@@H]3C(F)(F)F)ncc12 (single isomer, unassigned) [Example 397]",–
≤ 100 nM,≤ 500 nM,–,"[2H]C([2H])([2H])Nc1ncc(C#Cc2ccc3nc(C(F)F)n(C)c3c2)c2cc(NC(=O)C3CC3)ncc12 [Example 818, N-(5-((2-(difluoromethyl)-1-methyl-1H-benzo[d]imidazol-6-yl)ethynyl)-8-((methyl-d3)amino)-2,7-naphthyridin-3-yl)cyclopropanecarboxamide]",–
–,≤ 500 nM,≤ 100 nM,"CNc1ncc(-c2nc3cc(N4CCOCC(C)C4)ccc3o2)c2cc(NC(=O)C3CC3)ncc12 (stereo not drawn) [Example 335, N-(5-(5-(6-methyl-1,4-oxazepan-4-yl)benzo[d]oxazol-2-yl)-8-(methylamino)-2,7-naphthyridin-3-yl)cyclopropanecarboxamide]",–
–,≤ 500 nM,≤ 100 nM,"CNc1ncc(-c2nc3ccc(N4CC5CN(C6CC6)CC(C4)O5)cn3n2)c2cc(NC(=O)C3CC3)ncc12 [Example 582, N-(5-(6-(7-cyclopropyl-9-oxa-3,7-diazabicyclo[3.3.1]nonan-3-yl)-[1,2,4]triazolo[1,5-a]pyridin-2-yl)-8-(methylamino)-2,7-naphthyridin-3-yl)cyclopropanecarboxamide]",–
≤ 100 nM,≤ 500 nM,–,"CNc1ncc(C#Cc2ccn3cnnc3c2)c2cc(NC(=O)C3CC3)ncc12 [Example 607, N-(5-([1,2,4]triazolo[4,3-a]pyridin-7-ylethynyl)-8-(methylamino)-2,7-naphthyridin-3-yl)cyclopropanecarboxamide]",–
–,≤ 500 nM,≤ 100 nM,"CNc1ncc(-c2nc3ccc(N4CCO[C@@H](C)C4)cn3n2)c2cc(NC(=O)C3CC3)ncc12 [Example 478, (S)-N-(8-(methylamino)-5-(6-(2-methylmorpholino)-[1,2,4]triazolo[1,5-a]pyridin-2-yl)-2,7-naphthyridin-3-yl)cyclopropanecarboxamide]",–
–,≤ 500 nM,≤ 100 nM,"CNc1ncc(-c2nc3cc(Br)ccc3o2)c2cc(NC(=O)C3CC3)ncc12 [Example 209, N-(5-(5-bromobenzo[d]oxazol-2-yl)-8-(methylamino)-2,7-naphthyridin-3-yl)cyclopropanecarboxamide]",–
–,≤ 500 nM,≤ 100 nM,"CNc1ncc(-c2nc3cc(N4CCOCC4)ccc3o2)c2cc(NC(=O)[C@@H]3C[C@@H]3F)ncc12 [Example 424, (1S,2S)-2-fluoro-N-(8-(methylamino)-5-(5-morpholinobenzo[d]oxazol-2-yl)-2,7-naphthyridin-3-yl)cyclopropane-1-carboxamide]",–
≤ 100 nM,–,–,"CC[C@H]1CN(c2ccc3nc(-c4cnc(NC)c5cnc(NC(=O)[C@H]6C[C@H]6C)cc45)nn3c2)CCO1 (single isomer, unassigned) [Example 1079]","IC50 [1, 5]: ≤ 500 nM"

# Source: patent publication US20240025906A1 (NEURON23, INC., priority 2022, published 2024)
